Legend:
[1] = system: gram-positive microorganisms in the biofilm; assay: Antibacterial activity against cells immersed in a biofilm matrix (CFU, drop plate); type: cell-based
Experimental: To determine the effectiveness of the antibiotic against bacteria in […], bacteria were grown in Basal medium for 3 days at a temperature of 37° C. without swinging to obtain a dense biofilm [A. R Kayumov, Khakimullina E., Sharafutdinov I, Trizna E., Latypova L., Lien Thi, Margulis A., Bogachev M, Kurbangalieva A. Inhibition of biofilm formation in Bacillus subtilis by new halogenated furanoses. J. Antibiotics.—2014.—V. 68.—No 5.—P. 297-301.]. Then the biofilm was washed with a sterile 0.9% NaCl solution and fresh sterile medium was poured. Antiseptics were added to concentrations (1-16)×MBC (minimum bactericidal concentration) and incubated for 24 hours. Then the culture fluid was removed from the wells, washed once with 0.9% NaCl solution to remove non-adherent cells, and cell viability in biofilms was evaluated by counting CFU by Drop plate analysis [B. Herigstad, M Hamilton, J. Heersink How to optimize the drop plate method for enumerating bacteria. J Microbiol Methods.—2001.—V. 44.—P. 121-129]. To do this, the biofilm was mechanically removed from the surface and homogenized in 0.9% NaCl by pipetting and ultrasonic treatment. Then, serial 10-fold dilutions of the bacterial suspension in 0.9% NaCl were prepared, and 5 μI of each suspension were transferred to plates with dense nutrient medium. CFU was counted from drops containing 5-10 colonies.
The results of the study of antimicrobial activity against cells of the studied strains immersed in the biofilm matrix, in comparison with miramistin and benzalkonium chloride, are presented in FIGS. 1 and 2.

Asp. fumigates = assay: Sensitivity of microscopic fungi in solution (colonies after exposure); type: cell-based
Experimental: For the preparation of inoculum, were respectively used pure (2-5) days cultures of yeast and mycelial fungi, grown on Saburo's dense nutrient broth. Inoculum for plating was prepared in different ways, depending on the type of fungi. Thus, yeast crops (C. albicans) were prepared by washing the culture from an agar stroke. Cultures of mycelial fungi (Rh. oryzae, Asp. fumigatus) were pre-degraded in a pounder. A suspension of microorganisms was prepared in a sterile isotonic sodium chloride solution, bringing the inoculum density to 5 UNITS (GISK [State Research Institute of Standardization and Control] named after L. A. Tarasevich) or according to the McFarland standard 1 UNIT with a concentration of at least 1×10^6 CFU/ml, considering that the size of the fungal elements is approximately 10 times the size of bacteria (this provided the possibility of creating a mixture of biocide with suspension, the concentration of microorganisms of the order of 1×10^5 CFU/ml).
Solutions of compound I, miramistin, and benzalkonium chloride in working concentrations (0.1%, 0.2%, 0.3%) were poured into sterile 0.9 ml tubes. 0.1 ml of microbial suspension was added to test tubes with disinfectant solutions and mixed by shaking for several seconds. The exposition lasted for 1, 5, and 15 minutes. After required temporary exposure for action of the disinfectant, 0.5 ml of the neutralizer solution was added and mixed by shaking.
Then, 0.1 ml of the mixture was inoculated on a dense nutrient medium and the plates with inoculate were placed in a thermostat with a temperature of 27° C. for (2-4) days for yeast and (5-7) days for mycelial fungi, respectively.
After the time required for the cultivation of microorganisms of this species, the results were counted according to the number of colonies grown on the Petri dish. In the absence of growth, the time for culturing microorganisms was increased by a factor of 2. The grown colonies were subjected to microscopy.
The tested substances were studied on clinical and archival strains of yeast and mycelial fungi. As comparison drugs, drugs commonly used in clinical practice were used: miramistin and benzalconium chloride. After the required exposure time for action of the disinfectant, a series of 0.1 ml mixture was aseptically plated on the surface of a dense nutrient medium in Petri dishes. After the time of cultivation of microorganisms, the results were counted according to the number of colonies grown on the Petri dish.

E. coli CDC F-50 = assay: Antiseptic activity on rat skin; type: in vivo; settings: E. coli CDC F-50 on rat skin; antiseptic concentration 0.2%; exposure time 5 min; n = 6
Experimental: The study of the antiseptic activity of compound I in rats […] was carried out in accordance with [R 4.2.2643-10 Metody laboratornykh issledovaniy i ispytaniy mediko-profilakticheskikh dezinfektsionnykh sredstv dlya otsenki ikh effektivnosti i bezopasnosti: Rukovodstvo.—M: Federal'nyy tsentr gigiyeny i epidemiologii Rospotrebnadzora, 2010.—S. 615. R 4.2.2643-10 Laboratory methods for the study and testing of medical prophylactic disinfectants to assess their effectiveness and safety: Guide.—M.:: Federal Center for Hygiene and Epidemiology of Rospotrebnadzor, 2010.—P. 615]. Experiments were carried out on male Wistar rats with a body weight of 180-250 g.
A culture of E. coli CDC F-50, grown on dense nutrient medium for (18-20) hours, was washed with sterile isotonic chloride solution, centrifuged at 5000 rpm for 5 minutes, the supernatant was drained and cells were resuspended with sterile isotonic sodium chloride solution.
The bacterial suspension of microorganisms was brought to a turbidity of […] according to McFarland, which corresponds to a concentration of 1.5×10^7 cells/ml.
Animals were formed in 5 groups of 6 animals each. All manipulations with animals were performed under isoflurane anesthesia (4%—induction of anesthesia (2 min, 1 l/min), 2%—basis narcosis). A portion of 5×5 cm was shaved with a hair clipper on the dorsal part of the body of the animal.
A 0.25 ml microbial suspension containing 1×10^7 CFU of E. coli CDC F-50 was applied to the shaved portion of the rat back with a dispenser and distributed with a sterile disposable spatula over the entire square area. It was left for 2-3 minutes until dry.
Then, a gauze cloth (5×5 cm) was applied to the skin of rats for 5 minutes. In the experimental group, the tissue was pre-wetted with 1 ml of 0.2% solution of compound I, and in the positive control groups, the tissue was dipped in 1 ml of 0.2% miramistin, benzalkonium chloride and chlorhexidine. In the negative control group, the cloth was immersed in 1 ml of sterile saline. […]
After the time required for the cultivation of microorganisms of this species, the results were counted according to the number of colonies grown on the Petri dish. […] After counting the number of colonies grown on Petri dishes, the density of contamination per 1 cm^2 of the surface and the percentage of disinfection were calculated, taking the number of colonies removed from control surfaces and not exposed to antiseptics action as 100%. The percentage of growth inhibition of E. coli CDC F-50 was calculated by the formula: […]

Row | Molecule | higher activity compared to miramistin and benzalkonium chloride ([1]; same decrease of CFU at lower excess of MBC) [fold] | Number of colonies grown in a Petri dish (Asp. fumigates; exposure 5 min, 0.1% solution) | Growth inhibition rate (M ± SD) (E. coli CDC F-50) [%] | less active than benzalkonium chloride [1] [times] | Number of colonies grown in a Petri dish (Asp. fumigates; exposure 1 min, 0.1% solution) | Number of colonies grown in a Petri dish (Asp. fumigates; exposure 1 min, 0.2% solution) | Number of colonies grown in a Petri dish (Asp. fumigates; exposure 15 min, 0.1% solution)
1 | CCCCCCCCCCCC[N+](C)(C)Cc1cnc(C[N+](C)(C)CCCCCCCCCCCC)c2c1COC(CC)O2 (stereo not shown) [Compound I, 5,8-(Bis(methylene (N, N-dimethyl-N-dodecylammonium))-2-ethyl-4H-[1,3]dioxino [4,5-c]pyridiniumdichloride] | 2 | 1 | 97.5 ± 1.7 |  |  |  | 
2 | CCCCCCCCCCCCCC(=O)NCCC[N+](C)(C)Cc1ccccc1.O.[Cl-] [Miramistin, benzyldimethyl [3-(myristoylamino)propyl]-ammonium chloride monohydrate] |  | 12 | 97.2 ± 1.8 | 2 | 20 | 10 | 2
3 | alkyldimethyl(phenylmethyl) ammonium chloride [Benzalconium chloride] |  |  | 96.8 ± 2.0 |  |  |  | 

Reference: US11014934B2, “Antiseptic drug” (AO “TATKHIMFARMPREPARATY”, priority 2017, dated 2021)
